Experimental data as given in US4377687A, “Analogs of 1-(2-chloroethyl)-1-nitroso-3-(cycloheyl)-urea substituted by heterocyclic rings or alkyl radicals” (Stiftung Deutsches Krebsforschungszentrum, priority 1978, dated 1983).
“And” between values parts separate entries of the source, which are not always exact repeats. Equal values may be shown once. Read-outs that look alike come from different tables or passages of the source.

Tests used:
Yoshida sarcoma [1] = type: in vivo, rat (male Sprague-Dawley rats)
Method: The chemotherapeutic activity of nitrosoureas was compared in antitumor tests using Yoshida sarcoma ascited cells implanted into the wall of the descending colon in Sprague-Dawley rats.
(§1) Male Sprague-Dawley rats were used in the experiments. Yoshida sarcome in ascites form was maintained in the same strain of rats by serial intraperitoneal injection of 0,5 ml of ascites fluid.
(§2) 3×10^6 cells were injected into the colon wall in a manner known per se. The chemotherapeutic treatment was carried out on the eighth day after implantation of the tumor cells.
(§3) Water-insoluble compounds were dissolved in Cremophor EL/ethanol/physiological saline (20:20:60: vol.%). Water-soluble substances were dissolved in physiological saline. Cremophor EL is a surfactant on the basis of polyethoxylated castor oil. All test compounds were administered introperitoneally. The nitrosoureas were applied at approximately equitoxic doses corresponding to about 80% of the acute LD50 values observed in healthy rats of the same strain over a 28-day observation period.
Each experiment involved an untreated control group and a varying number of treated groups. Individual survival times were counted as days after tumor inoculation. At the time of death a record of whether an animal was tumor-free or not was made. All animals alive 120 days after tumor inoculation were killed. Animals that according to macroscopic examination had no tumor at the end of the experiment were considered as cured. Since in a number of control rats also no tumors occurred after 120 days the differences in cures between controls and treated animals rather than absolute numbers are reported. Differences in survival were evaluated statistically by individual comparisons between treated rats and controls using a nonparametric log-rank test (Kalbfleisch and Prentice, The statistical analysis of failure time data, Wiley, New York, 1979). Numerical evaluation was performed using a computerized system.

Yoshida sarcoma [2] = details: previous experiments; i.p.; cited from earlier work
[3] = Mean animal weight / weight gain after tumor transplantation; type: in vivo, rat (Sprague-Dawley rats); details: CP 70 (exp. 1-3), BCNU 25, MeCCNU 45 (exp. 1), picolyl-3-CNU 25, its HCl 25 (exp. 2), morpholino-CNU 28, piperidino-CNU 15 (exp. 3), dimethylmorpholino-CNU 45 mg/kg (exp. 4); for Mean animal weight on day 50: day 50 after tumor transplantation; for Mean animal weight on day 100: day 100 after tumor transplantation
Method: as §1, §2, §3
In all treated animals and at all doses tested the mean weight gain was lower than in the controls. Table 3 gives the mean animal weights measured 50 and 100 days after tumor transplantation in experiments 1 to 5.

[4] = Experiment 1, CP 70, BCNU 25, MeCCNU 45 mg/kg
[5] = Experiment 1, CP 70, BCNU 25, MeCCNU 45 mg/kg, initial animals CP 30, BCNU 30, MeCCNU 29
[6] = Experiment 1, i.p. day 8, CP 70, BCNU 25, MeCCNU 45 mg/kg
[7] = Experiment 2, CP 70, picolyl-3-CNU 25, picolyl-3-CNU.HCl 25 mg/kg
[8] = Experiment 2, CP 70, picolyl-3-CNU 25, picolyl-3-CNU.HCl 25 mg/kg, 30 initial animals each
[9] = Experiment 3, CP 70, morpholino-CNU 28, piperidino-CNU 15 mg/kg
[10] = Experiment 3, CP 70, morpholino-CNU 28, piperidino-CNU 15 mg/kg, 30 initial animals each
[11] = Experiment 5, CP 70, picolyl-3-CNU.HCl 25, morpholino-CNU 28, piperidino-CNU 15 mg/kg
[12] = Experiment 5, CP 70, picolyl-3-CNU.HCl 25, morpholino-CNU 28, piperidino-CNU 15 mg/kg, 15 initial animals (picolyl-3-CNU.HCl 14)
[13] = Experiment 5, CP 70, piperidino-CNU 15 mg/kg

O=NN(CCCl)C(=O)NCCCl [BCNU, 1,3-bis-(2-chloroethyl)-1-nitrosourea]
tumor-free animals at the end of the experiment (in words) (Yoshida sarcoma [1]; 120 days): increased the rate of tumor-free animals alive at the end of the experiment
increase in tumor-free animals (cures) above controls (Yoshida sarcoma [1]; 120 days, CP (exp. 1-3), BCNU, MeCCNU 45, dimethylmorpholine-CNU 45, piperidino-CNU 15, picolyl-3-CNU.HCl 25 mg/kg): 18%
D1-120 = difference (%) between tf1-120 of treated and untreated animals (Yoshida sarcoma [1]; [4]): 22%
D120 = difference (%) between tf120 of treated and untreated animals (Yoshida sarcoma [1]; [4]): 18%
tf1-120 (%) (tf120 + animals dying of toxicity) (Yoshida sarcoma [1]; [4]): 47%
tf120 (%) (animals surviving day 120 without tumor) (Yoshida sarcoma [1]; [4]): 43%
tf1-120, No. (tf120 + animals dying of toxicity) (Yoshida sarcoma [1]; [5]): 14
tf120, No. (animals surviving day 120 without tumor) (Yoshida sarcoma [1]; [5]): 13
% M (median survival time, untreated control = 100) (Yoshida sarcoma [1]; [6]): 160%
M = median survival time (Yoshida sarcoma [1]; [6]): 74 days
activity against Yoshida sarcoma, shown previously (in words) (Yoshida sarcoma [2]): active
Mean animal weight on day 50 [3]: 270 g
Mean animal weight on day 100 [3]: 300 g

O=P1(N(CCCl)CCCl)NCCCO1 (stereo not drawn) [CP, 2-bis-(β-chloroethyl)-amino-oxo-2-oxa-2-λ^5-phospha-3-aza-cyclohexane]
D1-120 = difference (%) between tf1-120 of treated and untreated animals (Yoshida sarcoma [1]; [4]): 38%
D120 = difference (%) between tf120 of treated and untreated animals (Yoshida sarcoma [1]; [4]): 25%
tf1-120 (%) (tf120 + animals dying of toxicity) (Yoshida sarcoma [1]; [4]): 63%
tf120 (%) (animals surviving day 120 without tumor) (Yoshida sarcoma [1]; [4]): 50%
tf1-120, No. (tf120 + animals dying of toxicity) (Yoshida sarcoma [1]; [5]): 21
tf120, No. (animals surviving day 120 without tumor) (Yoshida sarcoma [1]; [5]): 15
% M (median survival time, untreated control = 100) (Yoshida sarcoma [1]; [6]): > 260%
M = median survival time (Yoshida sarcoma [1]; [6]): > 120 days
% M (median survival time, untreated control = 100) (Yoshida sarcoma [1]; [7]): > 545%
D1-120 = difference (%) between tf1-120 of treated and untreated animals (Yoshida sarcoma [1]; [7]): 58%
D120 = difference (%) between tf120 of treated and untreated animals (Yoshida sarcoma [1]; [7]): 35%
tf1-120 (%) (tf120 + animals dying of toxicity) (Yoshida sarcoma [1]; [7]): 80%
tf120 (%) (animals surviving day 120 without tumor) (Yoshida sarcoma [1]; [7]): 57%
tf1-120, No. (tf120 + animals dying of toxicity) (Yoshida sarcoma [1]; [8]): 24
tf120, No. (animals surviving day 120 without tumor) (Yoshida sarcoma [1]; [8]): 17
M = median survival time (Yoshida sarcoma [1]; Experiment 2, i.p. day 8, CP 70, picolyl-3-CNU 25, picolyl-3-CNU.HCl 25 mg/kg): > 120 days
% M (median survival time, untreated control = 100) (Yoshida sarcoma [1]; [9]): > 686%
D1-120 = difference (%) between tf1-120 of treated and untreated animals (Yoshida sarcoma [1]; [9]): 48%
D120 = difference (%) between tf120 of treated and untreated animals (Yoshida sarcoma [1]; [9]): 38%
tf1-120 (%) (tf120 + animals dying of toxicity) (Yoshida sarcoma [1]; [9]): 77%
tf120 (%) (animals surviving day 120 without tumor) (Yoshida sarcoma [1]; [9]): 67%
tf1-120, No. (tf120 + animals dying of toxicity) (Yoshida sarcoma [1]; [10]): 23
tf120, No. (animals surviving day 120 without tumor) (Yoshida sarcoma [1]; [10]): 20
M = median survival time (Yoshida sarcoma [1]; Experiment 3, i.p. day 8, CP 70, morpholino-CNU 28, piperidino-CNU 15 mg/kg): > 120 days
% M (median survival time, untreated control = 100) (Yoshida sarcoma [1]; [11]): 400%
D1-120 = difference (%) between tf1-120 of treated and untreated animals (Yoshida sarcoma [1]; [11]): 7%
D120 = difference (%) between tf120 of treated and untreated animals (Yoshida sarcoma [1]; [11]): 7%
tf1-120, No. (tf120 + animals dying of toxicity) (Yoshida sarcoma [1]; [12]): 1
tf120, No. (animals surviving day 120 without tumor) (Yoshida sarcoma [1]; [12]): 1
tf120, No. (animals surviving day 120 without tumor) (Yoshida sarcoma [1]; Experiment 5, CP 70, picolyl-3-CNU.HCl 25, morpholino-CNU 28, piperidino-CNU 15 mg/kg, 15 initial animals (picolyl-3-CNU.HCl 14), listed as cyclophosphamide): 1/15
tf1-120 (%) (tf120 + animals dying of toxicity) (Yoshida sarcoma [1]; [13]): 7%
tf120 (%) (animals surviving day 120 without tumor) (Yoshida sarcoma [1]; [13]): 7%
M = median survival time (Yoshida sarcoma [1]; Experiment 5, i.p. day 8, CP 70, picolyl-3-CNU.HCl 25, morpholino-CNU 28, piperidino-CNU 15 mg/kg): 40 days
rate of tumor-free animals treated with cyclophosphamide in the other experiments (Yoshida sarcoma [1]; after 120 days, experiments other than experiment 5, listed as cyclophosphamide): 50% and 57% and 67%
p for improvement of survival time / life expectancy (Yoshida sarcoma [1]; compared with controls, CP (exp. 1-3), dimethylmorpholine-CNU 45 mg/kg): < 0,05
effect on survival time / life expectancy (in words) (Yoshida sarcoma [1]; experiments 1-4, MeCCNU 45, morpholino-CNU 28 (exp. 3 and 5), dimethylmorpholine-CNU 45, piperidino-CNU 15, picolyl-3-CNU 25, picolyl-3-CNU.HCl 25 mg/kg): improved significantly
chemotherapeutic activity against Yoshida sarcoma in the colon wall (in words) (Yoshida sarcoma [1]; i.p.): most active compound
activity against Yoshida sarcoma, shown previously (in words) (Yoshida sarcoma [2]): responds favorably
Mean animal weight on day 50 [3]: 300 to 330 g
Mean animal weight on day 100 [3]: 300 to 370 g
